Measured values from ChEMBL document CHEMBL1154989, “Towards the second generation of Boceprevir: Dithianes as an alternative P2 substituent for 2,2-dimethyl cycloproyl proline in HCV NS3 protease inhibitors” (Bioorg Med Chem Lett, 2010).
Active and inactive are the calls of the source. The rule behind the calls is not given here.

Legend:
[1] = Inhibition of HCV NS3/4A serine protease by continuous spectrophotometric assay; parameters: species or system Hepacivirus hominis
[2] = Selectivity for HCV NS3 serine protease over human neutrophil elastase
[3] = AUC in rat at 10 mg/kg, po; assay type: ADME, organism-based; parameters: dose 10 mg/kg, route oral; conditions: plasma
Hepatitis C virus = experiment: Antiviral activity against HCV replicon expressing NS3-5 infected in HuH7 cells assessed as inhibition of viral replication after 3 days by ELISA; assay type: functional, organism-based, Hepacivirus hominis, Huh-7

Compound | Ki [1] [µM] | Ratio [2] | AUC [3] [nM·h] | EC90 (Hepatitis C virus; Hepatitis C virus, Huh-7, 72 h, read-out: EC90) [µM] | EC90 (Hepatitis C virus; huh-7)
C=CCNC(=O)C(=O)C(CC1CC1)NC(=O)[C@@H]1CC2(CN1C(=O)[C@@H](NC(=O)N[C@@H](CN1C(=O)CC(C)(C)CC1=O)C(C)(C)C)C(C)(C)C)SCCS2 (stereo not given in full) | 0.021 | 290 | – | – | –
C=CCNC(=O)C(=O)C(CCC)NC(=O)[C@@H]1CC2(CN1C(=O)[C@@H](NC(=O)NC1(CS(=O)(=O)C(C)(C)C)CCCCC1)C(C)(C)C)SCCCS2 (stereo not given in full) | 0.007 | 128 | 2560 | – | –
C=CCNC(=O)C(=O)C(CCC)NC(=O)[C@@H]1CC2(CN1C(=O)[C@@H](NC(=O)N[C@@H](CN1C(=O)CC(C)(C)CC1=O)C(C)(C)C)C(C)(C)C)SCCS2 (stereo not given in full) | 0.005 | 630 | 60 | – | –
C=CCNC(=O)C(=O)C(CCC1CC1)NC(=O)[C@@H]1CC2(CN1C(=O)[C@@H](NC(=O)N[C@@H](CN1C(=O)CC(C)(C)CC1=O)C(C)(C)C)C(C)(C)C)SCCS2 (stereo not given in full) | 0.013 | 1700 | – | – | –
CC(C)(C)NC(=O)N[C@H](C(=O)N1CC2(C[C@H]1C(=O)NC(CC1CCC1)C(=O)C(N)=O)SCCS2)C(C)(C)C (stereo not given in full) | 0.6 | – | – | – | –
C=CCNC(=O)C(=O)C(CC1CC1)NC(=O)[C@@H]1CC2(CN1C(=O)[C@@H](NC(=O)NC1(CS(=O)(=O)C(C)(C)C)CCCCC1)C(C)(C)C)SCCCS2 (stereo not given in full) | 0.018 | 130 | 1690 | – | –
C=CCNC(=O)C(=O)C(CCC)NC(=O)[C@@H]1CC2(CN1C(=O)[C@@H](NC(=O)NC1(CS(=O)(=O)C(C)(C)C)CCCCC1)C(C)(C)C)SCCS2 (stereo not given in full) | 0.011 | 50 | 570 | – | –
CC(C)(C)NC(=O)N[C@H](C(=O)N1C[C@H]2[C@@H]([C@H]1C(=O)NC(CC1CCC1)C(=O)C(N)=O)C2(C)C)C(C)(C)C (stereo not given in full) [BOCEPREVIR] | 0.014 | – | 140 | 0.35 | –
CC(C)(C)NC(=O)N[C@H](C(=O)N1CC2(C[C@H]1C(=O)NC(CC1CCC1)C(=O)C(N)=O)SCCS2)C1CCCCC1 (stereo not given in full) | 0.4 | – | – | – | –
CC(C)(C)NC(=O)N[C@H](C(=O)N1CC2(C[C@H]1C(=O)NC(CC1CC1)C(=O)C(N)=O)SCCS2)C1CCCCC1 (stereo not given in full) | 0.2 | – | – | – | –
C=CCNC(=O)C(=O)C(CC1CC1)NC(=O)[C@@H]1CC2(CN1C(=O)[C@@H](NC(=O)NC(C)(C)C)C(C)(C)C)SCCS2 (stereo not given in full) | 0.7 | inactive | – | – | Not Active
C=CCNC(=O)C(=O)C(CCC)NC(=O)[C@@H]1CC2(CN1C(=O)[C@@H](NC(=O)N[C@@H](CN1C(=O)CC(C)(C)CC1=O)C(C)(C)C)C1(C)CCCCC1)SCCS2 (stereo not given in full) | 0.006 | 240 | 40 | – | –
C=CCNC(=O)C(=O)C(CC1CC1)NC(=O)[C@@H]1CC2(CN1C(=O)[C@@H](NC(=O)N[C@@H](C(=O)OC1CC1)C(C)C)C(C)(C)C)SCCS2 (stereo not given in full) | 0.084 | 40 | – | – | –
C=CCNC(=O)C(=O)C(CC1CC1)NC(=O)[C@@H]1CC2(CN1C(=O)[C@@H](NC(=O)N[C@@H](CN1C(=O)CC(C)(C)CC1=O)C(C)(C)C)C1(C)CCCCC1)SCCS2 (stereo not given in full) | 0.018 | 200 | 200 | – | –
C=CCNC(=O)C(=O)C(CC1CC1)NC(=O)[C@@H]1CC2(CN1C(=O)[C@@H](NC(=O)N[C@@H](C(=O)OC1CC1)C(C)C)C1CCCCC1)SCCS2 (stereo not given in full) | 0.072 | 15 | – | – | –
C=CCNC(=O)C(=O)C(CCCC)NC(=O)[C@@H]1CC2(CN1C(=O)[C@@H](NC(=O)N[C@@H](CN1C(=O)CC(C)(C)CC1=O)C(C)(C)C)C(C)(C)C)SCCS2 (stereo not given in full) | 0.013 | 1500 | 200 | – | –
CC(C)(C)NC(=O)N[C@H](C(=O)N1CC2(C[C@H]1C(=O)NC(CC1CC1)C(=O)C(N)=O)SCCS2)C(C)(C)C (stereo not given in full) | 0.3 | – | – | – | –
C=CCNC(=O)C(=O)C(CC1CC1)NC(=O)[C@@H]1CC2(CN1C(=O)[C@@H](NC(=O)NC1(CS(=O)(=O)C(C)(C)C)CCCCC1)C(C)(C)C)SCCS2 (stereo not given in full) | 0.033 | 40 | 770 | – | –
C=CCNC(=O)C(=O)C(CCC)NC(=O)[C@@H]1CC2(CN1C(=O)[C@@H](NC(=O)NC1(CS(=O)(=O)C(C)(C)C)CCCCC1)C1(C)CCCCC1)SCCS2 (stereo not given in full) | 0.019 | 10 | 1340 | – | –
